Target: T1, Dimer of Gag-Pol polyprotein [489-587] (Human immunodeficiency virus 1, UniProt P12497)
T1 construct: 489-587
Test: Protease Inhibition Assay
Settings: pH 6.4; 25 °C
Experimental: IC50 values for inhibition of recombinant HIV protease were determined using the spectrofluorometric assay, which utilized an intramolecularly quenched fluorogenic substrate, 2-(aminobenzoyl)-Thr-Ile-Nle-Phe(p-NO2)-Gln-ArgNH2. Cleavage of the substrate by HIV protease released the fluorescent N-terminal tripeptide from its close apposition to the quenching nitrobenzyl group, resulting in enhanced fluorescence.

CCCCNC(=O)N(C)C[C@@H](O)[C@H](Cc1ccccc1)NC(=O)[C@H](CC(N)=O)NC(=O)OCc1ccccc1 [benzyl N-[(1S)-1-{[(2S,3R)-4-[(butylcarbamoyl)(methyl)amino]-3-hydroxy-1-phenylbutan-2-yl]carbamoyl}-2-carbamoylethyl]carbamate]
IC50: > 10 µM

CCCCNC(=O)N(CC(C)C)C[C@H](O)[C@H](Cc1ccccc1)NC(=O)[C@H](CC(N)=O)NC(=O)OCc1ccccc1 [benzyl N-[(1S)-1-{[(2S,3S)-4-[(butylcarbamoyl)(2-methylpropyl)amino]-3-hydroxy-1-phenylbutan-2-yl]carbamoyl}-2-carbamoylethyl]carbamate]
IC50: > 10 µM

CCCCNC(=O)N(C)C[C@H](O)[C@H](Cc1ccccc1)NC(=O)[C@H](CC(N)=O)NC(=O)OCc1ccccc1 [benzyl N-[(1S)-1-{[(2S,3S)-4-[(butylcarbamoyl)(methyl)amino]-3-hydroxy-1-phenylbutan-2-yl]carbamoyl}-2-carbamoylethyl]carbamate]
IC50: > 10 µM

CNC(=O)N(C)C[C@@H](O)[C@H](Cc1ccccc1)NC(=O)[C@H](CC(N)=O)NC(=O)OCc1ccccc1 [benzyl N-[(1S)-2-carbamoyl-1-{[(2S,3R)-3-hydroxy-4-[methyl(methylcarbamoyl)amino]-1-phenylbutan-2-yl]carbamoyl}ethyl]carbamate]
IC50: > 10 µM

CNC(=O)N(CC(C)C)C[C@H](O)[C@H](Cc1ccccc1)NC(=O)[C@H](CC(N)=O)NC(=O)OCc1ccccc1 [benzyl N-[(1S)-2-carbamoyl-1-{[(2S,3S)-3-hydroxy-4-[(methylcarbamoyl)(2-methylpropyl)amino]-1-phenylbutan-2-yl]carbamoyl}ethyl]carbamate]
IC50: > 10 µM

CNC(=O)N(C)C[C@H](O)[C@H](Cc1ccccc1)NC(=O)[C@H](CC(N)=O)NC(=O)OCc1ccccc1 [benzyl N-[(1S)-2-carbamoyl-1-{[(2S,3S)-3-hydroxy-4-[methyl(methylcarbamoyl)amino]-1-phenylbutan-2-yl]carbamoyl}ethyl]carbamate]
IC50: > 10 µM
